Assay results published in ChEMBL document CHEMBL1201862, “PubChem BioAssay data set” (2004).
Activity calls are given as the source filed them. For most assays here, no stated cut-off is given here; in the data, actives have a measured EC50 and inactives only a lower limit.

Legend:
Ephrin type-A receptor 4 = Ephrin type-A receptor 4 (Mus musculus, UniProt Q03137); test: EphA4 ligand-binding antagonists – biochemical, colorimetric, mouse EphA4, primary screen (AID 689); assay type: functional
[1] = Luminescence Cell-Based Dose Confirmation HTS to Identify Inhibitors of Polyadenylation.; assay type: functional
[2] = target: T1, Neuropeptides B/W receptor type 1 (Homo sapiens, UniProt P48145); test: Fluorescence-based dose response cell-based high throughput screening assay to identify antagonists of the G-protein coupled receptor 7 (GPR7). [Related pubchem assays: 1952 (Screening assay (GPR7 antagonists).), 1880 (Summary AID.)]; assay type: functional
T1 sequence (P48145 whole entry): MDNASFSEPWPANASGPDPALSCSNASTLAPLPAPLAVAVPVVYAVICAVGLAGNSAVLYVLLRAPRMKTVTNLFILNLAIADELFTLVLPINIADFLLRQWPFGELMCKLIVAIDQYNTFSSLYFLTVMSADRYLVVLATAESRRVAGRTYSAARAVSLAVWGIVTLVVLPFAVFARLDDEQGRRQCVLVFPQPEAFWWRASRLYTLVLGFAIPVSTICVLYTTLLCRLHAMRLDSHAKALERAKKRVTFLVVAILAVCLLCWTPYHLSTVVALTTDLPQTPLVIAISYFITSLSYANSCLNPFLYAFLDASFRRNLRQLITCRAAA

[3] = target: Melanin-concentrating hormone receptor 1 (Homo sapiens, UniProt Q99705); test: Fluorescence-based counterscreen for antagonists of the G-protein coupled receptor 7 (GPR7): cell-based high throughput dose response assay to identify antagonists of the melanin-concentrating hormone receptor 1 (MCHR1).; assay type: functional
Streptokinase A = target: T2, Streptokinase A (Streptococcus pyogenes serotype M1, UniProt P10520); test: viability-normalized secreted streptokinase activity reduction – plasminogen activation absorbance, OD405, dose response (AID 1914); assay type: functional, Streptococcus pyogenes M1 GAS;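 further: secreted streptokinase activity via plasminogen activation per viability signal from cell pellet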
T2 sequence (P10520 whole entry): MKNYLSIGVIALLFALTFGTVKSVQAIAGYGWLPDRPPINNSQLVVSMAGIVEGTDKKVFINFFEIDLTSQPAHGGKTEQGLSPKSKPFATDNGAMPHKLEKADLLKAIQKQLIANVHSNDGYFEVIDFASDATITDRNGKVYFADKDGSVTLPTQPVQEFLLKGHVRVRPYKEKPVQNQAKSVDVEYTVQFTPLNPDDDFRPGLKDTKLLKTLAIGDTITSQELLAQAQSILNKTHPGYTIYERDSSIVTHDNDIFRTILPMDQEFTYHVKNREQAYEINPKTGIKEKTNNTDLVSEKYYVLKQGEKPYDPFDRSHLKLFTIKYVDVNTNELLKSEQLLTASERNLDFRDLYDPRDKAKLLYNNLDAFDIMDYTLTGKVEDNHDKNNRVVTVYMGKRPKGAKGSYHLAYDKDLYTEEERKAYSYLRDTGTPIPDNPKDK

[4] = M. tuberculosis H37Rv growth inhibitors, H37Rv strain (AID 1626); assay type: functional
Streptococcus = test: GAS UMAA2166 growth inhibition – luminescence, BacTiterGlo, counter-screen for streptokinase expression inhibitor project, dose response (AID 1915); assay type: functional, organism-based;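 further: potency for reduction of bacterial viability or growth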
[5] = tested on: Streptococcus sp. 'group A'; test: Streptococcus pyogenes SK(-)GAS viability under kanamycin – luminescence, BacTiterGlo, confirmation, counter-screen for streptokinase expression inhibitor project, dose response (AID 1900); assay type: functional, organism-based
[6] = target: T3, Rac GTPase-activating protein 1 (Homo sapiens, UniProt Q9H0H5); test: blockers of MgcRacGAP-driven Rac1 GTP hydrolysis – biochemical, ADP Hunter fluorescence, primary and confirmatory, confirmation (AID 624330); assay type: functional
T3 sequence (Q9H0H5 whole entry): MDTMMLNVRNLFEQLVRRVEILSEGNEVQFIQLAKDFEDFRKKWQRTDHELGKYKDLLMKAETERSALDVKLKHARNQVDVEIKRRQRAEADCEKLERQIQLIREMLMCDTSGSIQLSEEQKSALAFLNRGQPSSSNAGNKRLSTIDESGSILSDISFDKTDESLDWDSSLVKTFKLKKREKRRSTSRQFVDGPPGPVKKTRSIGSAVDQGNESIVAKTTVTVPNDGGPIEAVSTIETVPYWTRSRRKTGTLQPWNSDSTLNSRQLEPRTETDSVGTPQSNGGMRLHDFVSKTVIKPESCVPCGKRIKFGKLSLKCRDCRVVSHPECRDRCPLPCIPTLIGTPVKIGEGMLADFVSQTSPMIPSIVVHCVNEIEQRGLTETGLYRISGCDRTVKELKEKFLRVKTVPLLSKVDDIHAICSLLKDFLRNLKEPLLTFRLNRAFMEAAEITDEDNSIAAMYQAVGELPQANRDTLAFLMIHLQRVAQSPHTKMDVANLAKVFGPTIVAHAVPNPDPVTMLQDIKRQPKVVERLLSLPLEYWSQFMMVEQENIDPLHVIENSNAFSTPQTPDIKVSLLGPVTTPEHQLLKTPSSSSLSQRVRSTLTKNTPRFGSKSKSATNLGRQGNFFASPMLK

[7] = target: T4, Sentrin-specific protease 8 (Homo sapiens, UniProt Q96LD8); assay type: functional
T4 sequence (Q96LD8 whole entry): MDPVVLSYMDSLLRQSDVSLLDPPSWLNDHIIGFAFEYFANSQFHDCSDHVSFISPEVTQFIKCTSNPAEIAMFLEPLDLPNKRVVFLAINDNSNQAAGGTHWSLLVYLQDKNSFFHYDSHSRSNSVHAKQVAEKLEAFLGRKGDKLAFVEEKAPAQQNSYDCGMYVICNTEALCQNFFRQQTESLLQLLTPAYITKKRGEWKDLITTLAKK

Estrogen receptor beta [8] = target: T5, Estrogen receptor beta (Homo sapiens, UniProt Q92731); test: blockers of SRC-3 recruitment to ERβ – biochemical, ELISA, streptavidin-HRP readout, orthogonal assay, confirmation (AID 1060)
Large T antigen = Large T antigen (Simian virus 40, UniProt P03070); assay type: functional, Betapolyomavirus macacae;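 further: Confirmatory-stage PubChem screen for compounds that inhibit SV40 T antigen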
[9] = target: T4, Sentrin-specific protease 8; assay type: functional; remark: listed apart in the source
Estrogen receptor beta [10] = target: T5, Estrogen receptor beta
[11] = target: Protein-tyrosine kinase 2-beta (Homo sapiens, UniProt Q14289);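 further: potency of inhibitors of PYK2 kinase phosphorylation of poly-GT substrate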
[12] = Luminescence Cell-Based Dose Response HTS to Identify Activators of Luciferase Translation or Activity in H4 […] Cells. [Related pubchem assays: 1829 (Project Summary), 1814 (Primary HTS)]; assay type: functional
BJ [13] = test: BJ-TERT-LT-ST fibroblast viability loss – cell-based, RAS-independent, luminescence, dose response (AID 1935); assay type: functional; settings: Homo sapiens;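 further: BJ fibroblasts immortalized with TERT plus LT and ST oncogenes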
[14] = Luminescence Cell-Based Dose Confirmation to Identify Activators of 5'UTR Stem-Loop Driven Alpha-Synuclein mRNA Translation in H4 Neuroglioblastoma Cells. [Related pubchem assays: 1829 (Project Summary), 1814 (Primary HTS)]; assay type: functional
BJ [15] = test: BJ-TERT fibroblast viability loss – cell-based, RAS-independent, luminescence, dose response (AID 1933); assay type: functional; settings: Homo sapiens
BJ [16] = test: cells; assay type: functional, cell-based; settings: Homo sapiens
[17] = Luminescence Cell-Based Dose Response to Identify Activators of Luciferase Translation or Activity in H4-C Neuroglioblastoma Cells. [Related pubchem assays: 1829 (Project Summary), 1814 (Primary HTS)]; assay type: functional
[18] = Luminescence Cell-Based Dose Response to Identify Activators of 5'UTR Stem-Loop Driven Prion Protein mRNA Translation in H4-C Neuroglioblastoma Cells. [Related pubchem assays: 1829 (Project Summary), 1814 (Primary HTS)]; assay type: functional
[19] = DRD fibroblast viability loss – cell-based, non-viral oncogenic, luminescence, dose response (AID 1934); assay type: functional; settings: Homo sapiens
[20] = Luminescence Cell-Based Dose Confirmation HTS to Identify Activators of 5'UTR Stem-Loop Driven Alpha-Synuclein mRNA Translation in H4 Neuroglioblastoma Cells. [Related pubchem assays: 1829 (Project Summary), 1814 (Primary HTS)]; assay type: functional
H4 = test: Luminescence Cell-Based Dose Response HTS to Identify Activators of 5'UTR Stem-Loop Driven Prion Protein mRNA Translation in H4 Neuroglioblastoma Cells. [Related pubchem assays: 1829 (Project Summary), 1814 (Primary HTS)]; assay type: functional; settings: Homo sapiens
[21] = target: T6, Histone-lysine N-methyltransferase NSD2 (Homo sapiens, UniProt O96028); assay type: biochemical
T6 sequence (O96028 whole entry): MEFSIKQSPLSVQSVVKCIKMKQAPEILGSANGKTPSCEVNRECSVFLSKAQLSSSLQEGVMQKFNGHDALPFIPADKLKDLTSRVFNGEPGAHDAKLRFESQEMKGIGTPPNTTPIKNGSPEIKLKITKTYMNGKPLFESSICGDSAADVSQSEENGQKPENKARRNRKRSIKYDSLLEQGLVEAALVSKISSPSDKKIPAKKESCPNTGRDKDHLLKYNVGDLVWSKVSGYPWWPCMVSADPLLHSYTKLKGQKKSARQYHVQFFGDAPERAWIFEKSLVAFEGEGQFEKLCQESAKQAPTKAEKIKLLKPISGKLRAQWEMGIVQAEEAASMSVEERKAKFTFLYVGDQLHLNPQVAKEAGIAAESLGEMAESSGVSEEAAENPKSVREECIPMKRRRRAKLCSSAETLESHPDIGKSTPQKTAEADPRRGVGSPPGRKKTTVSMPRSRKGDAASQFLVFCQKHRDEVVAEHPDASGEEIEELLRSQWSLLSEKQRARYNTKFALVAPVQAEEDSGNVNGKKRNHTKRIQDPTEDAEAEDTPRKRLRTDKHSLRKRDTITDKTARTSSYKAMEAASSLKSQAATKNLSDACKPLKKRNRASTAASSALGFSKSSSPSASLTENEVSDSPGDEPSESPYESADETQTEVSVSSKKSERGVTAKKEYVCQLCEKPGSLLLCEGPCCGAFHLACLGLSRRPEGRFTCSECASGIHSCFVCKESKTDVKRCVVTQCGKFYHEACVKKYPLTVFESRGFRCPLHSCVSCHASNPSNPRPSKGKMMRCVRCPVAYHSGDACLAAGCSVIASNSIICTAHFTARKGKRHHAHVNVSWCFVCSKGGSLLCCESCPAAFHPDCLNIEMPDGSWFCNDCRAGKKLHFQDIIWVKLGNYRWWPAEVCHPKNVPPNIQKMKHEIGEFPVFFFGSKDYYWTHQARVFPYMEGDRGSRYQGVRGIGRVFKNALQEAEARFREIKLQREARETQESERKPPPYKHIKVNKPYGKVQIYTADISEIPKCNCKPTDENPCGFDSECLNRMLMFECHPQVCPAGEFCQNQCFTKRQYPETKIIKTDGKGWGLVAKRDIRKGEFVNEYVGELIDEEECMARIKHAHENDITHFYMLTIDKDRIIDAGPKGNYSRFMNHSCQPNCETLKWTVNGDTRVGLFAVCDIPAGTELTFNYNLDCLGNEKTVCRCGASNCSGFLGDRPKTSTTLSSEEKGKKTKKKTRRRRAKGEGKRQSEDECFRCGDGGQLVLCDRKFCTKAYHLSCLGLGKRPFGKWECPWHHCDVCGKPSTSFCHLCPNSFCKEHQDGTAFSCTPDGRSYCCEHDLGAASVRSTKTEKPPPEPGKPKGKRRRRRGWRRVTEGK

[22] = NIH3T3 cell viability loss – ATP luminescence, mouse fibroblasts, counter-screen, dose response (AID 2010); assay type: functional, cell-based;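 further: cells exposed to compound for about 90 hours before reading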
[23] = Trypanosoma cruzi growth suppression in host cells – NIH3T3 host cells, beta-gal luminescence, confirmation (AID 2044); assay type: functional, cell-based;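 further: intracellular parasites grown in NIH/3T3 mouse fibroblasts as host cells; luminescent beta-galactosidase reporter signal from transgenic T. cruzi replicating inside host cells; inhibitors lower the luminescence signal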
Genome polyprotein = Genome polyprotein (dengue virus type 2, UniProt P29990); test: flavivirus cap methylation enzyme inhibition – biochemical, confirmation dose response, primary screen (AID 588689); assay type: functional
Genome polyprotein, sequence (P29990 2492-3391 limits assumed): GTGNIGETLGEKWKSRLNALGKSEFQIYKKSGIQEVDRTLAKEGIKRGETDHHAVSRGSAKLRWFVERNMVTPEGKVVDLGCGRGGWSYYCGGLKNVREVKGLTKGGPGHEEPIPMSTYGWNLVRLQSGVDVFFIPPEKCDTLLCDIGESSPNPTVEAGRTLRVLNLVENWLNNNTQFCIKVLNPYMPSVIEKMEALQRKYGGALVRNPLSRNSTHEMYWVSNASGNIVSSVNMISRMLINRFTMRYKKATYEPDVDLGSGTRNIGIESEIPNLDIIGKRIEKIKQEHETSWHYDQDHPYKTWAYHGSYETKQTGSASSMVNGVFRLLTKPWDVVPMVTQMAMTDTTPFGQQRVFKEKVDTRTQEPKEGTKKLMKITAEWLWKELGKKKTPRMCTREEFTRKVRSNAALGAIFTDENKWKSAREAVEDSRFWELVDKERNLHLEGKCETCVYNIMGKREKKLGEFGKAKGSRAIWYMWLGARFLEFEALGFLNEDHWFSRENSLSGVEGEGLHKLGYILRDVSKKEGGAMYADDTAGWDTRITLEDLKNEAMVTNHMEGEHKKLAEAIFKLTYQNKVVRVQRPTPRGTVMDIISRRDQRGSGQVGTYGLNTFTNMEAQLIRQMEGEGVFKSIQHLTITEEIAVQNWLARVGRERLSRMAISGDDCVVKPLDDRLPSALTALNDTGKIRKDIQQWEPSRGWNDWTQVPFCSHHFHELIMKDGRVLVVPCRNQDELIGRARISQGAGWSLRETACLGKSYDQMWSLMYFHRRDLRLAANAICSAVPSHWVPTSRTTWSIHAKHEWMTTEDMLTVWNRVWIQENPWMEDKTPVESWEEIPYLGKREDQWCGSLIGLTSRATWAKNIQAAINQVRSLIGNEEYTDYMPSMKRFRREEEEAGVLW

T5 sequence (Q92731 whole entry): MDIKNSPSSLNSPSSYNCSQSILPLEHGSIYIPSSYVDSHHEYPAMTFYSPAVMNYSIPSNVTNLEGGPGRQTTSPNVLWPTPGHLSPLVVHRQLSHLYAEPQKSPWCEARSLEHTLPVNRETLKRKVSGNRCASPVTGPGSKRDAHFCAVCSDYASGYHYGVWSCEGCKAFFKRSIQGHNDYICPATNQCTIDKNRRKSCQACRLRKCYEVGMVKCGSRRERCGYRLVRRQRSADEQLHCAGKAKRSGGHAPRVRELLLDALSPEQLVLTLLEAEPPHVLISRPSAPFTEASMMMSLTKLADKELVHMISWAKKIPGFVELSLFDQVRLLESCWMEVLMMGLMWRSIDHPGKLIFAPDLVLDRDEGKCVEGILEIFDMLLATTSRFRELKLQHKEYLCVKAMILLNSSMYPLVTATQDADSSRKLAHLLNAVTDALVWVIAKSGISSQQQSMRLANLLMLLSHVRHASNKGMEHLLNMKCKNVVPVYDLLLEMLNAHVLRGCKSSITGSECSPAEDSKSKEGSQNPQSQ
Ephrin type-A receptor 4, sequence (Q03137 whole entry): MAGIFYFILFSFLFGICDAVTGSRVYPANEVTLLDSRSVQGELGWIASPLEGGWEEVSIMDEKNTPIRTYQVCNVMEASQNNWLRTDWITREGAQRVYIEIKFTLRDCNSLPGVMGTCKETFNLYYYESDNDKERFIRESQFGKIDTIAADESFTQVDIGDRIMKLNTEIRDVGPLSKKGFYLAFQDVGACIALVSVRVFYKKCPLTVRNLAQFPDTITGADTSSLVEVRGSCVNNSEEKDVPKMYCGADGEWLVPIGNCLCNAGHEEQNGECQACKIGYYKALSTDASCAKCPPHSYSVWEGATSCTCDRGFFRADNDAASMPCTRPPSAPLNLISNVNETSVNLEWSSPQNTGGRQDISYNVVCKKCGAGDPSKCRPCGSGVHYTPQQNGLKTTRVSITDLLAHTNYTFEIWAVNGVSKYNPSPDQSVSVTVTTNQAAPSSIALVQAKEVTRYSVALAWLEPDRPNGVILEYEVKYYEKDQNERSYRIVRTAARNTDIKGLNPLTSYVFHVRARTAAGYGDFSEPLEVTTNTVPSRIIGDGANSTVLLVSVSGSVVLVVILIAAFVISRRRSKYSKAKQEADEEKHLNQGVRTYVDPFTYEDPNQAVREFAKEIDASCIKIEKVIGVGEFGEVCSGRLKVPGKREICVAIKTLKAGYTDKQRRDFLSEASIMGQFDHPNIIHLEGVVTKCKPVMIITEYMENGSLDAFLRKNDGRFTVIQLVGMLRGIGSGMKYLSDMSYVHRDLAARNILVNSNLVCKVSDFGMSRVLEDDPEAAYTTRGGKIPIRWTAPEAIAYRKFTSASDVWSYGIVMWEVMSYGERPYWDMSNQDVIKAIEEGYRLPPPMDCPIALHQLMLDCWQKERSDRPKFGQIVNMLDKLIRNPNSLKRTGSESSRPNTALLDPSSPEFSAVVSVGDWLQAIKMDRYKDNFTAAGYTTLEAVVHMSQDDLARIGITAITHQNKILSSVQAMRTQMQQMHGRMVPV
Large T antigen, sequence (P03070 whole entry): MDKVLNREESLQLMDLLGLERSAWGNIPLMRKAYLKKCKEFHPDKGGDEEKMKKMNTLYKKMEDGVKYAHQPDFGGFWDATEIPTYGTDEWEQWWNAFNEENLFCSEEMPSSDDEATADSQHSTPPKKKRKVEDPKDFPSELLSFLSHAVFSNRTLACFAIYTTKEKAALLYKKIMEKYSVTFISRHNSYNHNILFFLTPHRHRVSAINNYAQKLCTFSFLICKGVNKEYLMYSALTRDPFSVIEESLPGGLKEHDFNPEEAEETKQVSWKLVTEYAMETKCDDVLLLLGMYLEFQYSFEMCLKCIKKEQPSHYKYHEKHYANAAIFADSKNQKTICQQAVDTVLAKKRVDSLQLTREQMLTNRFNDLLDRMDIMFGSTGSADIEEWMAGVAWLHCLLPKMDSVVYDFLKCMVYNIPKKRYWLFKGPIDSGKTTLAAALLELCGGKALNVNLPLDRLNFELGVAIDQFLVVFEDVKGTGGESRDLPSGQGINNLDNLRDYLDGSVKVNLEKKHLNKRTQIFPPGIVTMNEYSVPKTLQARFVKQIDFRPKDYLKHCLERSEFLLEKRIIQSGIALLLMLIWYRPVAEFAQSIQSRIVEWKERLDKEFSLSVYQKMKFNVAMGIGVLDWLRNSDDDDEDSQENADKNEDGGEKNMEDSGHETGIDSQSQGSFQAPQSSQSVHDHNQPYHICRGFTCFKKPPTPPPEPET
Protein-tyrosine kinase 2-beta, sequence (Q14289 whole entry): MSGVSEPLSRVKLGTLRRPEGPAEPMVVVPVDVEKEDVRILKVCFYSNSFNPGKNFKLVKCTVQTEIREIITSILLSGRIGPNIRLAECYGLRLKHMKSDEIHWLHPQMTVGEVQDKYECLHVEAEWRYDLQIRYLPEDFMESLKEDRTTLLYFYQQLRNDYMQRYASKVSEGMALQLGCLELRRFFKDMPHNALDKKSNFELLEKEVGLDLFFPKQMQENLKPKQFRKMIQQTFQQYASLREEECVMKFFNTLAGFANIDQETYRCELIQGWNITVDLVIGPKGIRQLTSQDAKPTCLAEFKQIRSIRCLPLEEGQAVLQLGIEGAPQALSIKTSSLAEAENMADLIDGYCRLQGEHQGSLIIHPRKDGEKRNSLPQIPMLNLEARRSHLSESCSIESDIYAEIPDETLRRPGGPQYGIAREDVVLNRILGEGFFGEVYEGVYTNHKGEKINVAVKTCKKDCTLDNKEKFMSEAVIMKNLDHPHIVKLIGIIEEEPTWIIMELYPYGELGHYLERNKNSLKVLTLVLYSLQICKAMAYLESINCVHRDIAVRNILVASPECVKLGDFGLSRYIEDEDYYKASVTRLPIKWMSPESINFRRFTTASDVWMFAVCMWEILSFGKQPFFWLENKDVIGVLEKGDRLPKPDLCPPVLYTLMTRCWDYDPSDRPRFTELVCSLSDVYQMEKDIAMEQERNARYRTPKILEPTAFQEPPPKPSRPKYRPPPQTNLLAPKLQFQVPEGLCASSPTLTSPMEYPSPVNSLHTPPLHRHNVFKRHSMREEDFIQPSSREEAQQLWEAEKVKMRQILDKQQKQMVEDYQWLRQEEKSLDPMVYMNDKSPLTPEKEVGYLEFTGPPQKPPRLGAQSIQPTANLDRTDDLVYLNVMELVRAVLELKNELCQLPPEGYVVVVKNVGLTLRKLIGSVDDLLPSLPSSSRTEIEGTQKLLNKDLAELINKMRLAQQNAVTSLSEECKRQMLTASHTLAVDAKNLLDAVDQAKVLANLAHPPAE
Melanin-concentrating hormone receptor 1, sequence (Q99705 whole entry): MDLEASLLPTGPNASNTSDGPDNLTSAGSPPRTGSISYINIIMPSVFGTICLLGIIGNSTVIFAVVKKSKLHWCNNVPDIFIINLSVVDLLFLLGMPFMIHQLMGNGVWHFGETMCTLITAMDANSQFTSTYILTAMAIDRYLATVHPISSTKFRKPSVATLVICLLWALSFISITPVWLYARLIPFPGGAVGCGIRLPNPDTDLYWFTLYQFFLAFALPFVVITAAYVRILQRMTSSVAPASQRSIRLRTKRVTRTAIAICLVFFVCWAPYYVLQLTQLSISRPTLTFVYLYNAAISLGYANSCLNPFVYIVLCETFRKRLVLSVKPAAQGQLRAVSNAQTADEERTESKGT

CCn1c(COc2ccccc2C)nnc1SCC(=O)Nc1cc(C)on1
IC50 (Ephrin type-A receptor 4): > 100 µM (not active)

COc1cc(C(=O)Nc2c(C)cc(C)cc2C)c(Br)c(OC)c1OC
EC50 [1]: > 120 µM (not active)

CCOc1ccc([N+](=O)[O-])cc1CNC1CCCCCCC1
IC50 [2]: 27.3 µM (not active)
IC50 [3]: 12.6 µM (not active)

COc1ccc(OCCn2c(NC(=O)c3ccco3)nc3ccccc32)cc1
EC50 (Streptokinase A): > 150 µM (not active)
IC50 [4]: > 100 µM (active)
EC50 (Streptococcus): > 150 µM (not active)
EC50 [5]: 5.47 µM (active)

O=C(Nc1ccc(O)cc1)C1CC=CCC1 (configuration not stated)
IC50 [6]: 40.7 µM (active)
IC50 [7]: 25.1 µM (active)
IC50 (Estrogen receptor beta [8]): 0.124 µM (not active)
IC50 (Large T antigen): 16.4 µM (active)
IC50 [9]: 19.1 µM (active)
IC50 (Estrogen receptor beta [10]): 3.2 µM (active)

O=C1Nc2ccc(NS(=O)(=O)c3cccs3)c3cccc1c23
IC50 [11]: 5.32 µM (active)

N#CC1=C(SCC(=O)c2ccccc2)N=C2CCCC(O)=C2C1c1ccco1 (configuration not stated)
EC50 [12]: < 0.1 µM (active)
EC50 (BJ [13]): 18.9 µM (active)
EC50 [14]: 0.464 µM (active)
EC50 (BJ [15]): 2.85 µM (active)
EC50 (BJ [16]): 42.1 µM (inconclusive)
EC50 [17]: 0.395 µM (active)
EC50 [18]: 1.22 µM (active)
EC50 [19]: 19.3 µM (inconclusive)
EC50 [20]: > 120 µM (not active)
EC50 (H4): > 120 µM (not active)

O=C(O)c1cccc(NC2=C(Cl)C(=O)c3ccccc3C2=O)c1
EC50 [12]: < 0.1 µM (active)
AC50 [21]: 5.2 µM (active)
EC50 [14]: > 12 µM (not active)
EC50 [17]: 0.149 µM (active)
EC50 [18]: > 12 µM (not active)
EC50 [22]: 5.21 µM (active)
EC50 [23]: > 30 µM (not active)
EC50 [20]: 1.44 µM (active)
IC50 (Genome polyprotein): 15.6 µM (active)
EC50 (H4): 6.76 µM (active)

O=C(COC(=O)Cc1ccccc1F)Nc1ccc2c(c1)OCO2
IC50 [4]: > 100 µM (active)

Cc1nc2ccc(NC(=O)C(F)(F)F)cc2o1
IC50 [4]: > 100 µM (active)
